# Test results reported in US20240133870A1, “COMBINED TREATMENT FOR CANCER” (Yeda Research and Development Co. Ltd., priority 2021, published 2024).
# Legend:
# [1] = tested on: SK-MEL-5 BRAF (V600E) melanoma cells; assay: Co-culture of stroma (WI-38 or HS-5) and cancer cells; assay type: cell-based, human; settings: co-culture with HS-5; inhibitor added to vemurafenib
# Procedure: SK-MEL-5 BRAF (V600E) melanoma cells were co-cultured with the lung-derived stromal cell line WI-38 or with the bone marrow-derived stromal cell line HS-5 with or without vemurafenib (4 μM). […] Vehicle—DMSO, EGFRi—gefitinib (0.1 μM), EGFRi/HER2i—lapatinib (10 nM), METi—crizotinib (0.1 μM), FGFRi—AZD4547 (50 nM), NFkB/TNFRi—CAPE (10 μM), TGFBRi-LY2109761 (0.5 μM), gp130i—SC144 (1 nM). […] Error bars represent standard error. […] Error bars represent standard error. […] Human BRAF (V600E) melanoma cell lines UACC62 or G361 were used to generate xenograft tumor models in various tissues of nude mice. When tumors reached a volume of 500-700 μmm^3, they were resected, sliced, and cultured ex-vivo in the presence of different drug combinations or DMSO control. Following 4 days of drug treatment, slices were fixed, embedded in paraffin blocks, and subjected to immunohistochemistry, using anti-pERK antibody, or to immuno-fluorescence, using anti-pFGFR1 antibody. BRAFi (vemurafenib, 4 μM), FGFRi (AZD4547, 2 μM). Scale bar represents 50 μm.
# Four hours later, the melanoma BRAF (V600E) mutated cell line SK-MEL-5 was seeded on top of the stromal cells at a concentration of 1700 cells per well, or seeded without stroma. […] Concentrations of the inhibitors were based on dose curves with SK-MEL-5. For each inhibitor of potential mechanism of resistance, the maximal concentration with minimal effect (toxicity) on cell growth was selected (Cmax).
# To compare rScore value of stroma-mediated resistance with or without a given inhibitor, the rScore values of each inhibitor in the presence of stroma, was calculated. As a reduction in rScore may stem from mere toxicity of the inhibitor, rather than the abrogation of the stroma mediated resistance, each inhibitor rScore was penalized by its toxicity.
# rScoreinhibitor=rScoreinhibitor+(rScorestroma−rScoreinhibitor)*tOxicitY(Cmax)inhibitor
# [2] = tested on: HT-29 orthotopic xenograft colorectal tumors; assay: EVOC of orthotopic colon tumors, pERK and H&E/BrDu; assay type: cell-based, human; settings: AZD4547 0.5 μM, 96 hours of incubation
# Text: 500-700 μmm^3 tumors were resected, sliced, and cultured ex-vivo. Following 4 days of drug treatment, slices were fixed and embedded in paraffin blocks. FFPE slices were stained by H&E, and the percentage of viable cancer cells was morphologically assessed on H&E stained sections by a pathologist as the ratio between viable cancer cell area and total cancer area (viable cancer cells plus necrotic cancer cells). […] Each black dot in a given treatment condition represents a different tumor. P-values were calculated by two-sided t-test. *** P<0.001 ** P<0.01. Error bars represent standard error. […] Names of the six secreted factors with the highest rScore are shown. Factors related to TNF pathways are marked in gray. Results represent the average of at least two experiments. […] Cohort size pre-treatment: 5-6, P-values of the difference on the last day of experiment were calculated by one-sided Mann-Whitney test. * P<0.05. […] Viability percentage was calculated based on the entire field of view per treatment combination. […] FFPE slices were stained by pERK and pERK activity was assessed by a pathologist. […]
# For the ex-vivo experiments EVOCs from immunocompromised mice bearing human tumors were generated, as further described hereinbelow. For the in-vivo validation experiments, mice bearing subcutaneous tumors were used; and response was measured by evaluating tumor volume. […]
# [3] = tested on: colorectal BRAF (V600E) patient tumor; assay: EVOC of a colorectal BRAF (V600E) patient biopsy, viability; assay type: cell-based, human; settings: Dabrafenib 4 μM/trametinib 0.5 μM with or without trastuzumab or AZD4547 2 μM
# Procedure: Freshly resected biopsy was sliced, and cultured ex vivo. Following 4 days of drug treatment, slices were fixed and embedded in paraffin blocks. FFPE slices were stained by H&E, and the percentage of viable cancer cells was morphologically assessed on H&E stained sections by a pathologist as the ratio between viable cancer cell area and total cancer area (viable cancer cells plus necrotic cancer cells). […] Vehicle—DMSO, FGFRi—AZD4547 2 μM, HER2i—trastuzumab 30 g/ml, BRAFi/MEKi—Dabrafenib 4 μM/trametinib 0.5 μM.
# Tumor tissue was obtained from patients at the time of operation or at the time of tissue core biopsy. Following resection, the fresh tissue was placed in ice-cold PBS for immediate transfer to the lab for ex vivo organ culturing. […]
# Immunohistochemistry of EVOC tissues: To assess response therapy, 4 μm FFPE tissue slices were stained with H&E, or with specific antibodies: anti-pERK (Cell Signaling, #4370) followed by HRP conjugated secondary antibody (anti-Rabbit HRP, ZUC032, ZytoChem) and DAB staining (DAB substrate kit, DAB057, ZytoChem). […] All slides were scanned using the Pannoramic SCAN II (3[sequence]) and analyzed by a pathologist. The percentage of viable cancer cells was morphologically assessed on H&E stained sections by a pathologist as the ratio between viable cancer cell area and total cancer area (viable cancer cells plus necrotic cancer cells).
# human NSCLC tumor biopsy = assay: EVOC of NSCLC patient biopsies, viability; assay type: cell-based
# Text: Error bars represent standard error. […] Scale bar represents 50 μm. […] Error bars represent standard error. […] Scale bar represents 50 μm.
# Scale bar represents 50 μm. […] Scale bar represents 50 μm. […] Scale bar represents 50 μm.
substance,measurement,setting,value
AZD4547,abrogation of stroma-mediated resistance to vemurafenib,[1],needed to abrogate the resistance effect of HS-5
same,H&E and BrDu staining of tissue,[2],live and proliferating tissue
same,cancer cell viability,[3],did not improve the response to treatment
same,"response, cancer cell viability","human NSCLC tumor biopsy; patient refractory to osimertinib, osimertinib 4 μM with AZD4547 2 μM",improved response as compared to osimertinib alone
same,cancer cells viability,"human NSCLC tumor biopsy; treatment-naïve patient, AZD4547 0.2 μM added to gefitinib 1.6 μM",significantly reduced cancer cells viability
same,cancer cell viability,"human NSCLC tumor biopsy; treatment-naïve patient, in combination with osimertinib 4 μM",did not affect cancer cell viability
